For data set [1], the target named is SARS-CoV-2 3CL protease (Severe acute respiratory syndrome coronavirus 2, UniProt P0DTD1). As to the kind of experiment: biochemical. The settings on record: for pIC50: dose range 0.005 to 50 µM. Type of data set: biochemical.
Data set [2] concerns feline infectious peritonitis. The settings on record: upon treatment of FIP in cats; cited from earlier work.
The subject of data set [3] is human normal MRC-5 cells. As to the kind of experiment: MTT cell viability assay. The format is cell-based. The settings on record: 48 h. (Tetrazolium dyes change colour on reduction, which living cells bring about.)

pIC50: −log10 of the molar value. Bounds are passed on as bounds.

Usually % Inhibition stands for how much of the control response was suppressed. High values mean a response far below the control, low ones a response near the control. As a reminder, the pIC50 is the IC50 on a negative log10 scale, so that one unit is a factor of ten. Read a high pIC50 as a low IC50. “3-(5,6-dichlorobenzo[d]thiazol-2-yl)-2-(4-fluorophenyl)thiazolidin-4-one [a3]”: the “% Inhibition at 50 μM” value in data set [1] (50 μM compound) was determined as 0%. In data set [1], this compound had a negative logarithm of the IC50 (pIC50) of less than 4.30.
With `CC(C)CC(NC(=O)OCc1ccccc1)C(=O)NC(CC1CCNC1=O)C(O)S(=O)(=O)O` (stereo not drawn) [GC376], in data set [2], the side effects result is “subcutaneous fibrosis, transient stinging at the injection sites, hair loss, and abnormal eruption of permanent teeth in juvenile cats”.
For orientation: inhibition means the percentage by which the read-out fell short of the control. Consider `O=C1CSC(c2c(F)cccc2F)N1c1nc2cccc(Cl)c2s1` (stereo not drawn) [a1], for which 50 µM produced 0% inhibition in data set [1] (50 μM compound). The same compound had a negative-log IC50 (pIC50) in data set [1] of less than 4.30.
As for `O=C1CSC(c2c(F)cccc2Cl)N1c1nc2cccc(Cl)c2s1` (stereo not drawn) [a2], the “inhibition of cellular viability” value in data set [3] (MRC-5, 0.01 μM) is 68.5%; in data set [3] (MRC-5, 0.1 μM), 78.4%; in data set [3] (MRC-5, 1 μM) it was 95.5%; in data set [3] (MRC-5, 10 μM) it was 100%. The compound further showed an inhibition at 50 µM in data set [1] (50 μM compound) of 91.3%.
In data set [1] (50 μM compound), `O=C1CSC(c2ccc(F)cc2)N1c1nc2ccc(F)cc2s1` (stereo not drawn) [b1] displayed an inhibition at 50 µM of 0%. Moreover, in data set [1], the pIC50 was less than 4.30.
As to `O=C1CSC(c2ccc(F)cc2)N1c1nc2ccc(Cl)cc2s1` (stereo not drawn) [c1], the “inhibition of cellular viability” value in data set [3] (MRC-5, 0.01 μM) is reported as 31.0%; in data set [3] (MRC-5, 0.1 μM), 43,0%; in data set [3] (MRC-5, 1 μM), 36.1%; in data set [3] (MRC-5, 10 μM) it was 80.3%. The inhibition at 50 µM in data set [1] (50 μM compound) is 88%. The negative logarithm of the IC50 (pIC50) in data set [1] is 5.32.
For `O=C1CSC(c2ccc(O)cc2)N1c1nc2ccc(Cl)cc2s1` (stereo not drawn) [c5], in data set [1], the “inhibitory activity on main protease (in words)” value was “inactive” and the negative-log IC50 (pIC50) was less than 4.30. This compound yielded an inhibition at 50 µM in data set [1] (50 μM compound) of 7.87%.
In data set [1] (50 μM compound), `O=C1CSC(c2ccc(F)cc2)N1c1nc2c(Cl)cccc2s1` (stereo not drawn) [d1] had an inhibition at 50 µM of 6.72%. Moreover, the pIC50 in data set [1] was less than 4.30.
In the same order, the values of `COc1cccc2sc(N3C(=O)CSC3c3ccc([N+](=O)[O-])cc3)nc12` (stereo not drawn) [e2] are 31.3% and less than 4.30.
For `O=C1CSC(c2ccc(F)cc2)N1c1nc2ccc(OC(F)(F)F)cc2s1` (stereo not drawn) [h6] the same measures were 25.2% and less than 4.30.
As to `O=C1CSC(c2ccc(Cl)cc2)N1c1nc2ccc(OC(F)(F)F)cc2s1` (stereo not drawn) [h8], at 50 µM the inhibition in data set [1] (50 μM compound) was 3.04%. The compound further gave a negative logarithm of the IC50 (pIC50) in data set [1] of less than 4.30.
As for `N#Cc1ccc2nc(N3C(=O)CSC3c3c(F)cccc3Cl)sc2c1` (stereo not drawn) [k3], the “inhibition of cellular viability” value came to 57% in data set [3] (MRC-5, 0.01 μM); 64% in data set [3] (MRC-5, 0.1 μM); 100% in data set [3] (MRC-5, 1 μM); 100% in data set [3] (MRC-5, 10 μM). In data set [1] (50 μM compound), this compound yielded an inhibition at 50 µM of 100%. The compound also gave a pIC50 in data set [1] of 8.00.
In turn, `O=C1CSC(c2c(F)cccc2Cl)N1c1nc2ccc(C34CC5CC(CC(C5)C3)C4)cc2s1` (stereo not drawn) [m2] had an inhibition at 50 µM in data set [1] (50 μM compound) of 2.79%. Moreover, the negative logarithm of the IC50 (pIC50) in data set [1] was less than 4.30.
By melting point is commonly meant the temperature of the solid-liquid transition. As for `O=C1CSC(c2ccc(Br)cc2)N1c1nc2ccc(C34CC5CC(CC(C5)C3)C4)cc2s1` (stereo not drawn) [m11, 3-(6-(adamantan-1-yl)benzo[d]thiazol-2-yl)-2-(4-bromophenyl)thiazolidin-4-one], the melting point is 275 to 276 °C. The “inhibition of cellular viability” value in data set [3] (MRC-5, 0.01 μM) came to 65.0%. Besides, the “inhibition of cellular viability” value in data set [3] (MRC-5, 0.1 μM) came out at 81.3%. Besides, the “inhibition of cellular viability” value in data set [3] (MRC-5, 1 μM) is reported as 89.4%. In addition, in data set [3] (MRC-5, 10 μM), the “inhibition of cellular viability” value was found to be 100%. Also, in data set [1], the “inhibitory activity on main protease (in words)” value is “moderate activity” and the pIC50 is less than 4.30. The compound further displayed an inhibition at 50 µM in data set [1] (50 μM compound) of 45%.
As for `Cc1cc(C23CC4CC(CC(C4)C2)C3)cc2sc(N3C(=O)CSC3c3c(F)cccc3F)nc12` (stereo not drawn) [n2], the “inhibition of cellular viability” value in data set [3] (MRC-5, 0.01 μM) worked out at 20.8%; in data set [3] (MRC-5, 0.1 μM), 73.4%; in data set [3] (MRC-5, 1 μM), 90.7%; in data set [3] (MRC-5, 10 μM), 100%. For the same compound, the inhibition at 50 µM in data set [1] (50 μM compound) is 100%. This compound showed a negative logarithm of the IC50 (pIC50) in data set [1] of 5.00.

The values above are taken from PMC9000570, “Thiazole/Thiadiazole/Benzothiazole Based Thiazolidin-4-One Derivatives as Potential Inhibitors of Main Protease of SARS-CoV-2” (Molecules, 2022).
